Assays:
BEAS-2B = test: Calcium influx in airway epithelial cell strain BEAS-2B; assay type: cell-based; details: AST 2 units/mL; trypsin 10 to 100 units/mL; SFLLRNamide 100 μM
Protocol: The Ca^2+ influx due to the AST was examined with respect to an airway epithelial cell strain BEAS-2B. The confluent cells adhered to six 10 cm dishes were used. The cells were peeled with a 10 mM EDTA/HEPES-Tyrode buffer solution for 10 minutes, recovered by a centrifugal treatment at 1,500 rpm at room temperature for 5 minutes, and then resuspended in 10 mL of HEPES-Tyrode buffer solution-Ca^2+ (−) pH 7.4. The recovered cells (about 1.1×10^7 cells) were suspended in 11 mL of HEPES-Tyrode buffer solution (1 μg/mL, containing Fura2-AM) to load the Fura2-AM at 37° C. for 30 minutes. The cells were recovered by a centrifugal treatment at 1,500 rpm at room temperature for 5 minutes, twice washed with HEPES-Tyrode buffer solution-Ca^2+ (−) pH 7.4, and then resuspended in 11 mL of HEPES-Tyrode buffer solution-Ca^2+ (−) pH 7.4. The cell suspension was mixed with […] of 1M CaCl2 to give a final concentration of 1 mM CaCl2, and then incubated in a shaded state at room temperature for 5 minutes. The prepared Fura2-AM-loaded infected cells were dispensed into a 96 well plate in a volume of 100 μL/well, further subjected to the dispensation of HEPES-Tyrode buffer solution-Ca^2+ (+) pH 7.4 in a volume of 80 μL/well, and then assayed with Fluorescence Drug Screening System (Hamamatsu Photonics Co.). […]

HBEGF (Δ TM)-ALP = test: Cleavage of HBEGF (Δ TM)-ALP due to HAST (western blotting); assay type: biochemical, human; details: recombinant HAST, 37° C. overnight
Protocol: 293EBNA cell strain was sowed in a density of 9×10^6 cells/10 cm dish, cultured overnight, and then transfected with the human HBEGF-expressing plasmid: pEF9-HBEGF (Δ TM)-ALP prepared in 1). 12 μg of the pEF9-HBEGF (Δ TM)-ALP was subjected to a lipofection with 75 μL of Lipofectamine 2000 (produced by GIBCO-BRL). The lipofection was carried out according to an appended manual. 72 hour later, the cells were peeled with a pipette, and then centrifuged at 3000 rpm at 4° C. for five minutes. The lysate was dissolved in 12 mL of M-PER (produced by PIERCE Corp.), subjected to an SDS-polyacrylamide gel electrophoresis under a non-reducing condition, and then blotted on a nitrocellulose membrane (produced by BIO-RAD Corp.).
The product blotted on the nitrocellulose membrane was treated with 3% BSA-containing PBS at 4° C. overnight and then reacted with the anti-human HB-EGF antibody (produced by GENZYME Corp., an antibody recognizing an EGFR-binding site) diluted with 1% BSA-containing PBS in a concentration of 1 μg/mL, at room temperature for one hour. The nitrocellulose membrane was washed with 0.05% Tween 20-containing PBS three times, and then reacted with Swine Anti-Goat Ig's-ALP antibody (produced by BIOSOURCE Corp.) diluted with 1% BSA-containing PBS in a concentration of 1 μg/mL at room temperature for one hour. […]

HAST: human airway-specific trypsin-like enzyme; propeptide moiety bound to trypsin-like protein moiety via a disulfide bond
Ca2+ influx (BEAS-2B): observed
band reactive with the anti-human HB-EGF antibody (HBEGF (Δ TM)-ALP): shifted to a low molecular weight

— patent US20040038369A1, “Airway-specific trypsin-like enzymes and method of using the same” (priority 2000, published 2004)
